# Laboratory results as given in patent US10265276B2, “Pharmaceutical composition for preventing or treating arthritis or inflammatory disease containing 2-methoxy-4-(3-(4-methoxyphenyl)propyl-1-en-1-yl)phenol as active ingredient” (CHUNGBUK NATIONAL UNIVERSITY INDUSTRY-ACADEMIC COOPERATION …, priority 2015, dated 2019).
# Tests used:
# RAW 264.7 cells [1] = experiment: Anti-inflammatory effect in TNF-α-treated RAW 264.7 cells; assay type: cell-based, mouse; settings: TNF-α (10 ng/mL), 24 hours
# Protocol: (§1) 6. Nitrite assay: RAW 264.7 cells were added to a 96-well plate at a density of 1×10^4 cells/well, and LPS […] and TNF-α (10 ng/mL) were added or not added for 24 hours in the presence or absence of various concentrations of MMPP. Accumulation of nitrites in a supernatant was analyzed using a nitric oxide assay kit commercially available from iNtRON Biotechnology (Seongnam, Korea).
# 8. ROS Assay: An ROS assay was carried out using an ELISA kit (commercially available from Cell Biolabs Inc.).
# In Experimental Example 7, an experiment regarding an anti-inflammatory effect of MMPP in TNF-α-treated RAW 264.7 cells was performed.
# It was confirmed that, when RAW 264.7 cells were treated with TNF-α (10 ng/mL) in combination with MMPP […] for 24 hours, the NO and ROS generation (FIG. 8(A)), the iNOS and COX2 expression (FIG. 8(B)), and the STAT3 and NF-κB activities (FIGS. 8(C) and (D)) induced by treatment with TNF-α (10 ng/mL) were reduced in the RAW 264.7 cells.
# RAW 264.7 cells [2] = experiment: Nitrite assay (NO generation) in LPS-induced RAW 264.7 cells; assay type: cell-based, mouse; settings: LPS (1 µg/mL) and MMPP (0 to 4 µg/mL)
# Protocol: as §1
# In Experimental Example 4, a luciferase activity assay was carried out to determine whether MMPP inhibited generation of LPS-induced infective factors in RAW 264.7 cells. RAW 264.7 cells were transiently infected with an iNOS-luciferase construct, treated with LPS (1 μg/mL) alone or a combination of MMPP and LPS, and then activated for 12 hours.
# STAT3 [3] = experiment: STAT3-luciferase activity assay in LPS-induced RAW 264.7 cells; assay type: cell-based, mouse; settings: concentration-dependent manner (0 to 4 mg/mL)
# Protocol: 9. Cell infection: RAW 264.7 cells (5×10^4 cells/well) were added to a 24-well plate, and transiently infected with a STAT3-luciferase reporter plasmid and an iNOS-luciferase reporter plasmid using a Lipofectamine PLUS and plasmid mixture in OPTI-MEN.
# 11. Luciferase activity assay: RAW264.7 cells added to a 24-well plate at a density of 1×10^5 cells/well. After 90% confluence, the cells were transiently infected with STAT3 siRNA (Santa Cruz Biotechnology) or a mutant STAT3 (T456A) plasmid using a mixture of STAT3 siRNA (Santa Cruz Biotechnology) or a mutant STAT3 (T456A) plasmid and WelFect-EX PLUS in OPTI-MEN. […] The luciferase activity was measured using a luciferase assay kit (Promega, Madison, Wis., USA).
# RAW 264.7 cells were transiently infected with a STAT3-luciferase construct, treated with LPS (1 μg/mL) alone or a combination of MMPP and LPS, and then activated for 12 hours. Thereafter, the luciferase activity, the ROS and PGE2 expression, and a level of pro-inflammatory cytokines were determined.
# iNOS and COX-2 = experiment: Western blotting of iNOS and COX-2 expression in LPS-induced RAW 264.7 cells; assay type: cell-based, mouse; set-up: dose or concentration left out as unconfirmed; settings: LPS and MMPP
# synoviocytes = experiment: Anti-inflammatory effect in LPS- or TNF-α-treated synoviocytes; assay type: cell-based, human; settings: LPS or TNF-α (10 ng/mL), 24 hours
# From the text: 4. Human synoviocyte culture: The research protocol and human tissue cells used in the study were approved by the College of Medicine of Soon Chun Hyang University Medical Center. Cells were obtained from patients with rheumatoid arthritis diagnosed according to the American College of Rheumatology classification criteria revised in 1987. Synovial tissue samples are obtained from knee joints of patients with long-term rheumatoid arthritis (two males and two females, an average age of 65±21.3 years, and an average onset period of 10 years or more). FLS (Fibroblast-like synoviocytes) were cultured as described above. Simply, the FLSs were cultured in a culture dish (Nalge Nunc International, Rochester, N.Y., USA) containing a DMEM culture medium (Gibco Life Technologies) supplemented with […] FBS (Gibco Life Technologies) and 50 U·mL^−1 penicillin/streptomycin. For all cultures and an incubator, the culture was performed at 37° C. in an incubator under a 5% CO2 atmosphere. The medium was replaced every three days. The cells between 5th and 10th passage were used.
# In Experimental Example 8, an experiment was performed to check an anti-inflammatory effect of MMPP in synoviocytes treated with LPS and TNF-α.
# It was confirmed that the LPS […]- or TNF-α (10 ng/mL)-induced NO and ROS generations (FIG. 9(A)), the iNOS and COX2 expression (FIG. 9(B)), and STAT3 and NF-κB activities (FIGS. 9(C) and (D)) were reduced in the synoviocytes in the case of groups in which the […] were treated with LPS […] or TNF-α (10 ng/mL) in combination with MMPP […] for 24 hours.
# STAT3 [4] = experiment: STAT3 phosphorylation in LPS-treated RAW 264.7 cells; assay type: cell-based, mouse
# Protocol: 12. Western blotting assay: A whole cell lysate, a cytosolic extract, and a nuclear extract were obtained. SDS-PAGE and Western blotting assays were carried out as disclosed in published Documents 1 and 2. Simply speaking, the cells were seeded in a 6-well plate at a density of 5×10^5 cells/well, and cultured for 24 hours. Thereafter, the cells were treated with MMPP or DMSO for 24 hours. After the treatment, the cells were washed twice with PBS, and then lyzed. Proteins of the lyzed cells were separated on 10 to 15% SDS-PAGE. The proteins were transferred to a PVDF membrane, and the PVDF membrane was blocked at room temperature for 2.5 hours in a TB S/T buffer containing 5% skim milk. The membrane to which the proteins were transferred was analyzed using, as primary antibodies, murine monoclonal antibodies against Cdk2, Cdk4, Cdk6, cyclin B1, cyclin D1, cyclin E1, Bcl-2, Bax, caspase-3, caspase-8, STAT3, phspho-STAT3, (3-actin, and histone hl. Expression of the proteins was visualized using a chemiluminescence reagent (Amersham Pharmacia Biotech, Inc., Buckinghamshire, UK), and measured using a digital chemiluminescence imaging system equipped with a CCD camera (Fusion-FX, Fisher BioTech, Ltd., Wembley, Australia). […]
smiles,measurement,setting,value
"COc1ccc(C/C=C/c2ccc(O)c(OC)c2)cc1 [MMPP, 2-methoxy-4-(3-(4-methoxyphenyl)prop-1-en-1-yl)phenol]",NO and ROS generation,RAW 264.7 cells [1],reduced
same,STAT3 and NF-κB activities,RAW 264.7 cells [1],reduced
same,iNOS and COX2 expression,RAW 264.7 cells [1],reduced
same,NO generation,RAW 264.7 cells [2],reduced in a concentration-dependent manner
same,LPS-induced STAT3 luciferase activity,STAT3 [3],inhibited
same,iNOS and COX-2 expression,iNOS and COX-2,reduced in a concentration-dependent manner
same,NO and ROS generations,synoviocytes,reduced
same,STAT3 and NF-κB activities,synoviocytes,reduced
same,iNOS and COX2 expression,synoviocytes,reduced
same,LPS-induced phosphorylation of STAT3,STAT3 [4],inhibited
